{
  "source": "patent US20210292710A1",
  "about": "“METHOD FOR ENHANCING IMMUNE FUNCTION OF IMMUNE CELL AND IMMUNE CELL LINE PRODUCED USING THE SAME” (INDUSTRY-ACADEMIC COOPERATION FOUNDATION, YONSEI UNIVERSITY, priority 2020, published 2021)",
  "key": {"[1]": {"system": "lung-cancer cell line LLC2", "assay": "Percentage of immune cells relative to lung-cancer cell line LLC2", "assay_type": "in vivo", "from_the_text": "Referring to FIG. 9B, the percentage of immune cells relative to the lung-cancer cell line LLC2 due to PI3K inhibitor treatment is shown. Referring first to FIG. 9B (a), the percentage of CD3+ CD8+ T cells relative to LLC2 as a lung-cancer cell line due to PI3K inhibitor treatment is shown. In this connection, CD3+ CD8+ T cells may refer to cytotoxic T cells (Tc cells) capable of destroying damaged cells, infected cells, and tumor cells. Next, referring to (b) of FIG. 9B, the percentage of CD3+ CD4+ CD25+ Foxp3 T cells relative to LLC2 as a lung-cancer cell line due to the PI3K inhibitor treatment is shown. In this connection, the CD3+ CD4+ CD25+ Foxp3 T cells refer to regulatory T cells (Treg) that may maintain immuno-tolerance and autoimmunity, that is, may inhibit the immune response of other cells. Next, referring to (c) of FIG. 9B, the percentage of CD3+ TIL cells relative to LLC2 as a lung-cancer cell line due to the PI3K inhibitor treatment is shown. In this connection, CD3+ TIL cell may refer to a tumor infiltrating lymphocyte (TIL) that infiltrates a tumor cell cluster, thereby enhancing the T cell's tumor killing ability, that is, an anti-cancer effect of the T cell. Next, referring to (d) of FIG. 9B, the percentage of MDSC cells relative to the lung-cancer cell line LLC2 due to the PI3K inhibitor treatment is shown. In this connection, the MDSC cell may refer to immature myeloid cells which inhibit the immune response of immune cells such as T cells and NK cells, and induce the generation of regulatory T cells (Treg), thereby to promote the growth of cancer cells."}, "GLUT1 [2]": {"system": "GLUT1", "assay": "GLUT1 expression in T cells due to PI3K inhibitor and AKT inhibitor treatment", "assay_type": "cell-based", "conditions": "both helper and cytotoxic T cells; p<0.05", "from_the_text": "Furthermore, referring to FIG. 7, the GLUT1 expression level in the T cells due to PI3K inhibitor and AKT inhibitor treatment is shown."}, "GLUT1 [3]": {"system": "GLUT1", "assay": "GLUT1 expression in T cells due to PI3K inhibitor and mTORC1 inhibitor treatment", "assay_type": "cell-based", "conditions": "RAD001 as mTORC1 inhibitor, p<0.05", "from_the_text": "Furthermore, referring to FIG. 8, AKT and GLUT1 expression levels in T cells due to PI3K inhibitor and mTORC1 inhibitor treatment are shown. In this connection, RAD001 is used as a mTORC1 inhibitor. Furthermore, referring to (b) of FIG. 8, the GLUT1 expression level in T cells due to PI3K inhibitor and mTORC1 inhibitor treatment is shown."}, "[4]": {"system": "lung-cancer cell line LLC2", "assay": "Cancer cell killing ability of CD3+ T cells from PI3K inhibitor-treated mice, co-culture with lung-cancer cell line, annexin V/PI flow cytometry", "assay_type": "cell-based, mouse", "experimental": "First, 3 μg of a neoplasm lysate obtained from lung-cancer cell line LLC2 and 1 μg of an adjuvant LPS (lipopolysaccharide) are injected into 6 to 8 weeks old BALBc mice as an allogeneic model once a week in an intramuscular injection manner. At the same time, 50 mpk (mg/kg) of BKM-120 as a PI3K inhibitor (iPI3K) is orally administered to the mice belonging to the PI3K inhibitor-treated experimental group once a day.\nThen, lymphocytes are separated from the splenocyte of the mouse subjected to the PI3K inhibitor for a total of 3 weeks. Only CD3+ T cells are obtained using a magnetic-activated cell sorter (MACS).\nThen, the obtained CD3+ T cells are co-cultured for 24 hours together with the lung-cancer cell line from which the lysate is obtained. In this connection, a ratio between the numbers of the T cell and the lung-cancer cell line may be defined as 10 T cells: 1 lung-cancer cell line. Furthermore, the T cells and lung-cancer cell line are cultured under a normal condition, a hypoxic condition, and a low glucose condition, respectively, to identify cancer cell killing ability in poor tumor microenvironment.\nThen, the co-cultured T cells and lung-cancer cell line are subjected to flow cytometry analysis using an apoptosis kit and CD3+ antibodies.\nFirst, referring to (a) of FIG. 3A, the result of the cancer cell killing ability of the T cell under the normal condition due to the treatment of the PI3K inhibitor is shown. In this connection, the x-axis and y-axis indicate apoptosis using annexin V and PI (propidium iodine) as staining reagent, respectively."}, "[5]": {"system": "enzymes involved in glycolysis of T cells", "assay": "mRNA expression of enzymes involved in T cell glycolysis", "assay_type": "cell-based, mouse", "conditions": "CD3+ T cells activated 72 hours with anti-CD3 and anti-CD28 beads", "experimental": "(§1) Thus, referring to FIG. 4B, the results of mRNA expression of enzymes involved in glycolysis of T cells due to PI3K inhibitor treatment are shown. In this connection, in order to identify enzymes involved in glycolysis of T cells due to PI3K inhibitor treatment, the CD3+ T cells obtained in FIG. 2 are used. Furthermore, the obtained CD3+ T cell is activated for 72 hours using anti-CD3 and anti-CD28 beads to identify mRNA expression of enzymes involved in glycolysis. In this connection, CD3 secretes cytokine as a protein immunomodulator, and CD28 inhibits apoptosis. Only CD3-activated T cells may lead to apoptosis. Therefore, both CD3 and CD28 signals are used to increase T cell function and survival."}, "GLUT1 [6]": {"system": "GLUT1", "assay": "GLUT1 protein expression level of T cell", "assay_type": "cell-based, mouse", "conditions": "CD3+ T cells activated 72 hours with anti-CD3 and anti-CD28 beads", "experimental": "as §1, with “survival. Furthermore, referring to FIG. 5A, the result of GLUT1 protein expression level of T cell due to PI3K inhibitor treatment is shown. In this connection, T cell is treated in the same method as in FIG. 4B.” for “survival.”"}, "[7]": {"conditions": "hypoxic condition, 50 mpk BKM-120, 3 weeks, 24 hours co-culture"}, "[8]": {"conditions": "low glucose condition, 50 mpk BKM-120, 3 weeks, 24 hours co-culture"}, "[9]": {"conditions": "normal condition, 50 mpk BKM-120, 3 weeks, 24 hours co-culture"}},
  "data": [
    {"smiles": "Nc1cc(C(F)(F)F)c(-c2cc(N3CCOCC3)nc(N3CCOCC3)n2)cn1", "note": "[BKM 120, buparlisib]", "values": [
      {"measurement": "average percentage of CD3+ CD4+ CD25+ Foxp3 T cells (Treg)", "setting": "[1]; 35 mpk", "value": 17, "unit": "%"},
      {"measurement": "average percentage of CD3+ CD8+ T cells", "setting": "[1]; 35 mpk", "value": 38, "unit": "%"},
      {"measurement": "average percentage of MDSC cells", "setting": "[1]; 35 mpk", "value": 32, "unit": "%"},
      {"measurement": "distribution of percentage of CD3+ CD4+ CD25+ Foxp3 T cells (Treg)", "setting": "[1]; 35 mpk", "value": "16 to 19", "unit": "%"},
      {"measurement": "distribution of percentages of CD3+ CD8+ T cells", "setting": "[1]; 35 mpk", "value": "35 to 42", "unit": "%"},
      {"measurement": "distribution of the percentage of MDSC cells", "setting": "[1]; 35 mpk", "value": "31 to 33", "unit": "%"},
      {"measurement": "percentage of CD3+ TIL cells on average", "setting": "[1]; 35 mpk", "value": 0.4, "unit": "%"},
      {"measurement": "average percentage of CD3+ CD4+ CD25+ Foxp3 T cells (Treg)", "setting": "[1]; 50 mpk", "value": 15, "unit": "%"},
      {"measurement": "average percentage of CD3+ CD8+ T cells", "setting": "[1]; 50 mpk", "value": 42, "unit": "%"},
      {"measurement": "average percentage of MDSC cells", "setting": "[1]; 50 mpk", "value": 24, "unit": "%"},
      {"measurement": "distribution of percentage of CD3+ CD4+ CD25+ Foxp3 T cells (Treg)", "setting": "[1]; 50 mpk", "value": "13 to 17", "unit": "%"},
      {"measurement": "distribution of percentages of CD3+ CD8+ T cells", "setting": "[1]; 50 mpk", "value": "37 to 50", "unit": "%"},
      {"measurement": "distribution of the percentage of MDSC cells", "setting": "[1]; 50 mpk", "value": "22 to 26", "unit": "%"},
      {"measurement": "percentage of CD3+ TIL cells on average", "setting": "[1]; 50 mpk", "value": 0.9, "unit": "%"},
      {"measurement": "GLUT1 expression in iPI3K+/iAKT− group relative to iPI3K−/iAKT−, iPI3K−/iAKT+ and iPI3K+/iAKT+ groups", "setting": "GLUT1 [2]", "value": "2 to 3", "unit": "times"},
      {"measurement": "GLUT1 expression in iPI3K+/imTOR− group relative to iPI3K−/imTOR−, iPI3K−/imTOR+ and iPI3K+/imTOR+ groups", "setting": "GLUT1 [3]", "value": "6 to 7", "unit": "times"},
      {"measurement": "first quadrant (stained by both annexin V and PI, complete death of the cancer cell)", "setting": "[4]; [7]", "value": 47.4, "unit": "%"},
      {"measurement": "fourth quadrant (annexin V / PI)", "setting": "[4]; [7]", "value": 7.36, "unit": "%"},
      {"measurement": "second quadrant (annexin V / PI)", "setting": "[4]; [7]", "value": 26.7, "unit": "%"},
      {"measurement": "third quadrant (annexin V / PI)", "setting": "[4]; [7]", "value": 18.5, "unit": "%"},
      {"measurement": "first quadrant (stained by both annexin V and PI, complete death of the cancer cell)", "setting": "[4]; [8]", "value": 36.1, "unit": "%"},
      {"measurement": "fourth quadrant (annexin V / PI)", "setting": "[4]; [8]", "value": 3.71, "unit": "%"},
      {"measurement": "second quadrant (annexin V / PI)", "setting": "[4]; [8]", "value": 47.2, "unit": "%"},
      {"measurement": "third quadrant (annexin V / PI)", "setting": "[4]; [8]", "value": 13.1, "unit": "%"},
      {"measurement": "fourth quadrant (annexin V / PI)", "setting": "[4]; [9]", "value": 11.5, "unit": "%"},
      {"measurement": "second quadrant (annexin V / PI)", "setting": "[4]; [9]", "value": 15.5, "unit": "%"},
      {"measurement": "third quadrant (annexin V / PI)", "setting": "[4]; [9]", "value": 10.2, "unit": "%"},
      {"measurement": "first quadrant (stained by both annexin V and PI, complete death of the cancer cell)", "setting": "[4]; normal condition, T cells from mice given 50 mpk BKM-120 orally once a day for 3 weeks, 10 T cells:1 LLC2, 24 hours", "value": 62.8, "unit": "%"},
      {"measurement": "mRNA expression of each glycolysis enzyme versus spleen T cells and CD3+CD28-stimulated T cells", "setting": "[5]", "value": "higher"},
      {"measurement": "GLUT1 expression level relative to control", "setting": "GLUT1 [6]", "value": "6 to 7", "unit": "times"},
      {"measurement": "percentage of T cells expressing GLUT1 among all T cells", "setting": "GLUT1 [6]", "value": "60 to 70", "unit": "%"}
    ]}
  ]
}
